{"source": "patent US20180318338A1", "about": "“METHODS AND COMPOSITIONS FOR THE PREVENTION OF SUICIDE, HOMICIDE AND SELF-HARMING BEHAVIORS” (THE MCLEAN HOSPITAL CORPORATION, priority 2015, published 2018)", "origin": "cited, not measured here", "conditions": "in vivo", "data": [{"compound": "[Xe]", "note": "[xenon]", "values": [{"measurement": "blood level of xenon", "value": "100 to 200", "unit": "nL xenon/mL blood"}]}]}
